Measured values published in US11053185B2, “Dendritic polyethylene glycol derivative, and preparation method and application thereof” (JENKEM TECHNOLOGY CO., LTD. (TIANJIN), priority 2017, dated 2021).

Experiment: Comparison of solubility of derivatives in water
Type: physicochemical
Details: shaken vigorously every 5 minutes for 30 seconds until clear
Protocol: Then the solution was shaken vigorously every 5 minutes for 30 seconds. After 30 minutes, the solution was turbid. Another 1.5 mL of water was added and the solution was shaken vigorously every 5 minutes for 30 seconds, and the solution became clear until 9 mL of water was totally added.
24.2 mg of the cholesterol derivative of the mEG7-OH prepared in Example 9 was dispersed in 50 mL of water, and 5 mL of the mixture was taken out and added with 1.5 mL of water. Then the solution was shaken vigorously every 5 minutes for 30 seconds. After 30 minutes, the solution became turbid. Another 5 mL of water was added and the solution was shaken vigorously every 5 minutes for 30 seconds until 25 mL of water was totally added. 5 mL of the solution was taken out from the diluted solution and operated similarly, and the solution became clear until 10 mL of water was added.
(§1) 111.0 mg of the hexadecanol derivative of the ((mEG3)2-N—C3H6)2—N—C3H6—OH prepared in Example 8 was dispersed in 50 μL of water, and shaken vigorously every 5 minutes for 30 seconds. After 30 minutes, the solution became clear. Another 50 μL of water was added and the solution was shaken vigorously every 5 minutes for 30 seconds, and the solution was still clear until 1.025 mL of water was added.
as §1, with “112.9” for “111.0”, “mEG7-OH” for “((mEG3)2-N—C3H6)2—N—C3H6—OH”, “9” for “8”, “was turbid.” for “became clear.”, “became” for “was still”, “250 μL” for “1.025 mL”
After 30 minutes, the solution was clear. Another 50 μL of water was added and the solution was shaken vigorously every 5 minutes for 30 seconds, and the solution was still clear until 1.025 mL of water was added.
After 30 minutes, the solution was turbid. Another 50 μL of water was added and the solution was shaken vigorously every 5 minutes for 30 seconds. After 30 minutes, the solution became clear.

Solubility in water | Solubility in water (listed as hexadecanol) | Solubility in water (listed as menthol) | Solubility in water (listed as cholesterol) | Structure (SMILES)
Less than 1 mg/ mg/100 g H2O | less than 1 mg/100 g H2O |  |  | CCCCCCCCCCCCCCCCO [Hexadecanol, hexadecanol]
Less than 100 mg/ mg/100 g H2O |  | less than 100 mg/100 g H2O |  | CC1CCC(C(C)C)C(O)C1 (stereo not drawn) [Menthol, menthol]
Less than 0.2 mg/ mg/100 g H2O |  |  | less than 0.2 mg/100 g H2O | CC(C)CCC[C@@H](C)[C@H]1CC[C@H]2[C@@H]3CC=C4C[C@@H](O)CC[C@]4(C)[C@H]3CC[C@]12C [Cholesterol, cholesterol]
